US4130514A, “Synthesis of peptides” (Armour Pharmaceutical Company, priority 1978, dated 1978)

Test: adrenocorticotropic activity of the purified peptides (no method described)
Details: peptide purified by carboxymethylcellulose ion-exchange chromatography and Sephadex gel filtration; result in words only

[D-ala^1, asn^25 ]-ACTH-(1-25) [[D-ala^1 ,gln^25]-ACTH-(1-25)]
adrenocorticotropic activity: found to have adrenocorticotropic activity
